Data taken from PubChem BioAssay AID330 (DTP/NCI, 2004).
Values joined by “and” are separate entries in the source; they are usually repeats but may differ in a detail not shown here. Equal entries are not always repeated. Toxic doses and inconclusive results are not listed. Rule for the calls: active = survival T/C of 150% or more; inactive = T/C below 125% in these data.

Tested on: P388 leukemia ip, CD2F1 mice, survival T/C
Experiment: NCI In Vivo Anticancer Drug Screen. Data for tumor model P388 Leukemia (intraperitoneal) in CD2F1 (CDF1) mice
Details: endpoint: median survival time, higher = longer survival
Summary of the method: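 Mice carrying the transplanted tumor received test compound or vehicle. Survival was recorded in each group, and the value is the treated-group measurement divided by that of the vehicle-treated control group.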

[1] = dose: 50.0 mg/kg/injection, schedule: Q01DX005 (ip), vehicle: saline with Tween-80
[2] = dose: 100.0 mg/kg/injection, schedule: Q01DX005 (ip), vehicle: saline with Tween-80
[3] = dose: 200.0 mg/kg/injection, schedule: Q01DX005 (ip), vehicle: saline with Tween-80
[4] = dose: 50.0 mg/kg/injection, schedule: Q01DX009 (ip), vehicle: saline
[5] = dose: 100.0 mg/kg/injection, schedule: Q01DX009 (ip), vehicle: saline
[6] = dose: 200.0 mg/kg/injection, schedule: Q01DX009 (ip), vehicle: saline

Measured: T/C

O=c1[nH]ncn2nc3ccccc3c12
inactive: [1] 100 % of control | [2] 100 % of control | [3] 104 % of control

c1ccc(CCNC2CCc3ccccc3C2)cc1 (stereo unspecified)
inactive: [1] 93 % of control

COC1OC(CO)C(O)C(O)C1O (stereo unspecified)
inactive: [4] 100 % of control | [5] 94 % of control and 104 % of control | dose: 100.0 mg/kg/injection, schedule: Q04DX003 (ip), vehicle: saline 109 % of control | [6] 101 % of control and 100 % of control | dose: 200.0 mg/kg/injection, schedule: Q04DX003 (ip), vehicle: saline 95 % of control | dose: 400.0 mg/kg/injection, schedule: Q01DX009 (ip), vehicle: saline 106 % of control and 101 % of control | dose: 400.0 mg/kg/injection, schedule: Q04DX003 (ip), vehicle: saline 95 % of control

CCN(CC)CCn1nc2n(c(=O)c1=O)CC(=O)N(C)c1ccc(Cl)cc1-2
inactive: [4] 105 % of control | [5] 105 % of control | [6] 99 % of control

CC(=O)NC(/C=C/c1ccc(Cl)c(Cl)c1)c1cccc(O)c(=O)c1 (stereo unspecified)
inactive: dose: 6.25 mg/kg/injection, schedule: Q01DX009 (ip), vehicle: saline with Tween-80 100 % of control | dose: 12.5 mg/kg/injection, schedule: Q01DX009 (ip), vehicle: saline with Tween-80 99 % of control | dose: 25.0 mg/kg/injection, schedule: Q01DX009 (ip), vehicle: saline with Tween-80 113 % of control | dose: 25.0 mg/kg/injection, schedule: Q01DX009 (ip), vehicle: saline 119 % of control | [4] 124 % of control | [5] 98 % of control

CN1C(=O)C2(OC(N)=C(O)C2=O)c2ccccc21 (stereo unspecified)
inactive: dose: 50.0 mg/kg/injection, schedule: Q01DX005 (ip), vehicle: Klucel (hydroxypropylcellulose) (HPC) 99 % of control | dose: 100.0 mg/kg/injection, schedule: Q01DX005 (ip), vehicle: Klucel (hydroxypropylcellulose) (HPC) 96 % of control | dose: 200.0 mg/kg/injection, schedule: Q01DX005 (ip), vehicle: Klucel (hydroxypropylcellulose) (HPC) 97 % of control

N=C1C=CC2C(=Nc3ccccc3[N+]2=O)N1Cc1ccncc1 (stereo unspecified)
inactive: dose: 60.0 mg/kg/injection, schedule: Q01DX005 (ip), vehicle: saline with Tween-80 98 % of control | dose: 120.0 mg/kg/injection, schedule: Q01DX005 (ip), vehicle: saline with Tween-80 90 % of control | dose: 240.0 mg/kg/injection, schedule: Q01DX005 (ip), vehicle: saline with Tween-80 98 % of control

CCOc1c(N=Nc2ccccc2OC)c(-c2ccccc2)nn1C(N)=S
inactive: [1] 88 % of control | [2] 87 % of control | [3] 98 % of control

COC1=C(OC)C(=O)C(COC2CCCCO2)=CC1=O (stereo unspecified)
inactive: dose: 7.5 mg/kg/injection, schedule: Q01DX005 (ip), vehicle: saline with Tween-80 98 % of control | dose: 15.0 mg/kg/injection, schedule: Q01DX005 (ip), vehicle: saline with Tween-80 103 % of control
